# Like-named read-outs stand apart in the source and are kept apart here.
# Tests used:
# [1] = tested on: VLA-4 positive B16F10 melanoma cells; details: previously reported; cited from earlier work
# [2] = tested on: mice with CFA-induced inflammation; assay type: in vivo, mouse; details: ICR mice, CFA in right paw, 200 μCi iv, n=3
substance,measurement,setting,value
CB-TE1A1P-PEG4-LLP2A [^64Cu-LLP2A],Kd,[1],0.28 nM
same,Inflamed paw/muscle ratio,[2]; PET/CT 2 h post-injection,7.5 ± 3.7
same,Inflamed paw/muscle ratio,[2]; PET/CT 6 h post-injection,16.7 ± 1

# — publication PMC5520654 (Journal of immunology (Baltimore, Md. : 1950), 2017)
